Source: US11753373B2, “Protease inhibitors as antivirals” (priority 2021, dated 2023)
Like-named read-outs stand apart in the source and are kept apart here.

What was measured:
[1] = molecular target: SARS-CoV-2 M^pro (3CL protease) (Severe acute respiratory syndrome coronavirus 2 (2019-nCoV) (SARS-CoV-2), UniProt P0DTD1); type: biochemical; details: read-out: SARS-CoV-2M^pro inhibition IC50
[2] = type: in vitro ADME, Human; details: extraction ratio, compound at 1 uM, human liver microsomes 0.5 mg/mL
Description: (§1) Metabolic stability of novel protease inhibitors was determined via liver microsomal stability assay. Human, mouse, SD rat, beagle dog or monkey liver microsomes were incubated with the test compound for 5 to 60 minutes at 37° C., and then the remaining parent compound was quantified by LC-MS/MS. Percentage of the test compound remaining, half-life (t1/2), in vitro intrinsic clearance (CLint, in vitro), in vivo intrinsic clearance (CLint, in vivo), hepatic clearance (CLh) and extraction ratio (ER) were calculated.
(§2) Procedure: The assay was done as described in Baranczewski, P. et al. (2006) Pharmacological Reports 58:453-472; Pearson, P. and Wienkers, L. (2008) Handbook of Drug Metabolism, 2nd Edition. CRC Pres, P.478; and Venkatesh, P. et al. (2007) Biol. Pharm. Bull. 30:1021-2024. 0.625 mg/mL liver microsomes solution was prepared by mixing 2325 μL 100 mM of K-phosphate buffer (pH 7.4) containing 2.5 mM of MgCl2, 1.25 mM of EDTA, and 75 μL microsomes (20 mg/mL) in a vial for each species.
(§3) Positive control compound: (±) Verapamil hydrochloride (Cat No.: V4629; Lot No.: MKBV4993V; Source: Sigma)
(§4) 40 μL aliquots of the liver microsome/test compound mixture were dispensed into 96-well plate in triplicate and pre-warmed the mixture for 5 minutes at 37° C. Then, 10 μL of 5 mM NADPH solution was added to each well to initiate the reaction, and gently mixed. The samples were incubated at 37° C. with gentle shaking.
(§5) For 0-min samples, 200 μL of ACN containing internal standard was added to 40 μL of liver microsome/test compound mixture, followed by addition of 5 mM NADPH, and mixed gently.
(§6) For negative control: 40 μL of liver microsome/test compound mixture was incubated at 37° C. with gentle shaking for 60 minutes, followed by addition of 200 μL ACN containing 1% FA and internal standard and 10 μL of 5 mM NADPH, mixed gently.
(§7) All samples were centrifuged at 4° C. for 20 minutes at 4,000 rpm. Then, 100 μL of the supernatant from each sample was transferred to a new 96-well plate and 100 μL of ultrapure water containing 1% FA was added to each well, and mixed gently. Samples were analyzed by LC-MS/MS.
(§8) Data Analysis: Peak area ratio (Peak Area of test compound/Peak Area of internal standard) was used to represent the concentration of compound in each sample. The remaining percentage (% Remaining) at appointed time points was calculated versus the concentration of compound at 0 min. The Ln value of the remaining percentage was linearly fitted against the incubation time.
(§9) The half-life and clearance were calculated using the following equations:
(§10) Determined percent of the remaining test compound: % remaining=[area at tx/average areas at t0]×100 (1) % metabolized=[100−% remaining] (2)
(§11) Calculated the half-life (t1/2) using the slope (k) of the log-linear regression from the concentration of remaining parent compound versus time (min) relationship: t1/2 (min)=−ln 2/k. (3)
(§12) Clint, in vitro (mL/min/mg) Clint,in vitro=k/c,(c:Liver microsome concentration in the incubation system) (4)
(§13) Hepatic Clearance (CLh) CLh=Clint,in vivo*Hepatic Blood Flow (mL/min/kg)/(Hepatic Blood Flow (mL/min/kg)+Clint,in vivo) (6)
(§14) Extraction ratio (ER): ER=CLint,in vivo/(Qh+CLint,in vivo)*100,Qh:liver blood flow (7)

[3] = type: in vitro ADME; details: extraction ratio, compound at 1 uM; for Liver Microsomal Stability (ER) SD rat: SD rat liver microsomes 0.5 mg/mL; for Liver Microsomal Stability (ER) Beagle dog: beagle dog liver microsomes 0.5 mg/mL; for Liver Microsomal Stability (ER) Monkey: monkey liver microsomes 0.5 mg/mL; for Liver Microsomal Stability (ER) Mouse: mouse liver microsomes 0.5 mg/mL
Description: as §1, §2, §3
as §4, with “shaking. (Final concentrations: compound=1 μM; liver microsomes protein=0.5 mg/mL; MgCl2=2 mM; EDTA=1 mM; ACN=0.1%; DMSO=0.05%).” for “shaking.”
as §5, §6, §7, §8, §9, §10, §11, §12, §13, §14

[4] = wild type Mpro 17 nM, substrate 40 uM

SMILES	IC50 [1] [nM]	Liver Microsomal Stability (ER) Human [2]	Liver Microsomal Stability (ER) SD rat [3]	Liver Microsomal Stability (ER) Beagle dog [3]	Liver Microsomal Stability (ER) Monkey [3]	Liver Microsomal Stability (ER) Mouse [3]	IC50 [1, 4] [nM]
Cc1cccc2[nH]c(C(=O)N[C@@H](CC(C)C)C(=O)N[C@@H](C[C@@H]3CCNC3=O)C(=O)CCl)cc12 [Compound A-4-c, (2S)—N-[(2S)-4-chloro-3-oxo-1-[(3S)-2-oxopyrrolidin-3-yl]butan-2-yl]-4-methyl-2-[(4-methyl-1H-indol-2-yl)formamido]pentanamide]	1120	0.67	0.70	0.72	0.69	0.81	
COc1cccc2[nH]c(C(=O)N[C@@H](CC(C)C)C(=O)N[C@@H](C[C@@H]3CCNC3=O)C(=O)CCl)cc12 [Compound A-5-c, (2S)—N-[(2S)-4-chloro-3-oxo-1-[(3S)-2-oxopyrrolidin-3-yl]butan-2-yl]-2-[(4-methoxy-1H-indol-2-yl)formamido]-4-methylpentanamide]	359	0.89	0.74	0.80	0.79	0.84	
CC1(C)[C@@H]2[C@@H](C(=O)N[C@H](C#N)C[C@@H]3CCNC3=O)N(C(=O)[C@@H](NC(=O)C(F)(F)F)C3CC3)C[C@@H]21 [Compound D-2-a]		0.05	0.03	−0.04		0.13	24
CC(C)C(=O)N[C@H](C(=O)N1C[C@H]2[C@@H]([C@H]1C(=O)N[C@H](C#N)C[C@@H]1CCNC1=O)C2(C)C)C1CC1 [Compound D-2-b]		0.08	0.00	0.06		0.10	42.5
CC1(C)[C@@H]2[C@@H](C(=O)N[C@H](C#N)C[C@@H]3CCNC3=O)N(C(=O)[C@@H](NC(=O)C(F)F)C3CC3)C[C@@H]21 [Compound D-2-d]		0.03	0.05	0.05		0.18	58.7
CC1(C)[C@@H]2[C@@H](C(=O)N[C@H](C#N)C[C@@H]3CCCNC3=O)N(C(=O)[C@@H](NC(=O)C(F)F)C3CC3)C[C@@H]21 [Compound D-2-e]		0.09	0.04	−0.03		0.17	7.02
CC(C)C[C@H](NC(=O)c1cc2ccccc2[nH]1)C(=O)N1C[C@H]2[C@@H]([C@H]1C(=O)N[C@H](C#N)C[C@@H]1CCNC1=O)C2(C)C [Compound G-1-b]		0.38	0.33	0.33	0.51	0.16	377
CC(C)C[C@H](NC(=O)c1cc2ccccc2[nH]1)C(=O)N1C[C@H]2[C@@H]([C@H]1C(=O)N[C@@H](C#N)C[C@@H]1CCNC1=O)C2(C)C [Compound G-1-c]		0.67	0.30	0.30	0.58	0.27	964
CC(C)C[C@H](NC(=O)c1cc2ccccc2[nH]1)C(=O)N1C[C@H]2[C@@H]([C@H]1C(=O)N[C@@H](C[C@@H]1CCNC1=O)C(=O)CCl)C2(C)C [Compound G-1-d, N-[(2S)-1-[(1R,2S,5S)-2-{[(2S)-4-chloro-3-oxo-1-[(3S)-2-oxopyrrolidin-3-yl]butan-2-yl]carbamoyl}-1,5-dihydrogenio-6,6-dimethyl-3-azabicyclo[3.1.0]hexan-3-yl]-4-methyl-1-oxopentan-2-yl]-1H-indole-2-carboxamide]	968	0.83	0.78	0.81	0.92	0.59	
CC(C)C[C@H](NC(=O)c1cc2ccccc2[nH]1)C(=O)N1C[C@H]2[C@@H]([C@H]1C(=O)N[C@@H](C[C@@H]1CCNC1=O)C(=O)CO)C2(C)C [Compound G-1-e]		0.17	0.07	0.07		0.25	57.9
CC(C)C[C@H](NC(=O)c1cc2ccccc2[nH]1)C(=O)N1C[C@H]2[C@@H]([C@H]1C(=O)N[C@H](C=O)C(C)C)C2(C)C [Compound G-2-a]		0.54	0.53	0.56	0.48	0.16	> 2000
CC(C)C[C@H](NC(=O)c1cc2ccccc2[nH]1)C(=O)N1C[C@H]2[C@@H]([C@H]1C(=O)N[C@H](C(=O)CCl)C(C)C)C2(C)C [Compound G-2-c]		0.85	0.79	0.84		0.92	> 2000
CC(C)C[C@H](NC(=O)c1cc2ccccc2[nH]1)C(=O)N1C[C@H]2[C@@H]([C@H]1C(=O)N[C@H](C=O)C(C)(C)C)C2(C)C [Compound G-3-a]		0.70	0.54	0.62		0.78	> 10000
CC(C)C[C@H](NC(=O)C(F)(F)F)C(=O)N1C[C@H]2[C@@H]([C@H]1C(=O)N[C@H](C#N)C[C@@H]1CCNC1=O)C2(C)C [Compound H-1-c]		0.15	0.06	0.02		0.44	36.7
CC(C)C[C@H](NC(=O)C(C)C)C(=O)N1C[C@H]2[C@@H]([C@H]1C(=O)N[C@H](C#N)C[C@@H]1CCNC1=O)C2(C)C [Compound H-1-e]		0.05	0.06	0.05		0.31	43.3
CC(C)C(=O)N[C@H](C(=O)N1C[C@H]2[C@@H]([C@H]1C(=O)N[C@@H](C[C@@H]1CCNC1=O)C(N)=O)C2(C)C)C(C)(C)C [Compound H-2-b]		0.18	0.37	0.06		0.37	6.6
